# Data as given in patent publication US11572379B2, “Monomaleimide-functionalized platinum compounds for cancer therapy” (Medizinische Universität Wien, priority 2015, dated 2023).
# Entries after “also recorded” stand apart in the source; their conditions may differ.
# Experiments:
# [1] = system: CT-26 colon cancer cells; test: CT-26 colon cancer in vivo assay for anticancer activity; set-up: species or system Balb/c mice
# Method: CT-26 colon cancer cells (5×10^5 in serum-free medium) were injected subcutaneously into the right flank of Balb/c mice. Animals were treated with the indicated oxaliplatin-releasing drugs at concentrations equimolar to 9 mg/kg oxaliplatin (i.v.; KP2156, KP2299 (compound 12), and KP2541 (compound 22) were dissolved in 0.9% NaCl solution, KP2260 (compound 11) was dissolved in 10% propylene glycol/0.9% NaCl and oxaliplatin was dissolved in 5% glucose solution according to the clinical protocol) twice a week (Mondays and Thursdays). Also in case of KP2552 (mixture of compounds 23 and 24, with the 4-methyl-1,2-cyclohexanediamine moiety) the solvent and application scheme of oxaliplatin was used. In case of cisplatin-releasing prodrugs KP2372 (compound 8) and KP2540 (compound 30), a dose equimolar to 3 mg/kg cisplatin was applied twice a week. For the carboplatin derivative KP2551 (compound 20) a dose equimolar to 12 mg/kg carboplatin was applied. The complexes were dissolved in 0.9% NaCl, while for the platinum(II) drugs 5% glucose solution was used according to the clinical protocol. Animals were controlled for distress development every day and tumor size was assessed regularly by caliper measurement. Tumor volume was calculated using the formula: (length×width^2).
# [2] = system: L1210 murine leukemia cells; test: L1210 leukemia in vivo assay (survival); conditions: L1210 i.p., male DBA/2J×Balb/c SCID F1 mice
# Method: L1210 murine leukemia cells (1×10^5) were injected intraperitoneally in a volume of 0.2 mL into female DBA/2J (cisplatin-releasing drugs) or male DBA/2J×Balb/c SCID F1 mice (oxaliplatin-releasing drugs). Compounds (see FIG. 4; dissolved as described above) were administered intraperitoneally at drug concentrations equimolar to 3 mg/kg cisplatin and 9 mg/kg oxaliplatin, respectively, on day 1, 5, and 9. Toxicity was monitored by daily observation of animals and registration of their body weight. Therapeutic efficacy of the drug candidate was monitored by recording the lengths of survival of experimental mice compared to untreated control animals.
# [3] = system: B16 melanoma cells; test: B16 melanoma in vivo assay for anticancer activity; conditions: male C57/B6JRj mice, i.v. twice a week, equimolar to 9 mg/kg oxaliplatin
# Method: B16 melanoma cells (1×10^5 in serum-free medium) were injected subcutaneously into the right flank of male C57/B6JRj mice. Animals were treated with KP2299 at concentrations equimolar to 9 mg/kg oxaliplatin (i.v.; dissolved in 0.9% NaCl solution) twice a week. Oxaliplatin was dissolved in 5% glucose solution according to the clinical protocol. Animals were controlled for distress development every day and tumor size was assessed regularly by caliper measurement. Tumor volume was calculated using the formula: (length×width^2).
# [4] = Aqueous solubility; conditions: compared to KP2260
# [5] = RP-HPLC stability studies: hydrolytic stability in buffered aqueous solution at different pH values; type: physicochemical; conditions: 0.5 mM, 20° C.; for stability (decrease of the compound peak area): over 24 h; for hydrolysis: 24 hours
# Method: The stability of the compounds of the invention in aqueous solutions at different pH values was evaluated by incubation of compound 12 (KP2299) in different buffers and subsequent monitoring of the decrease of the compound peak area with the UV/VIS detector of a RP-HPLC system at 250 nm. Therefore, compound 12 was dissolved at a concentration of 0.5 mM in either 100 mM phosphate buffer pH=7.4, 100 mM sodium acetate buffer pH=6.3, 100 mM sodium acetate buffer pH=5.3 or 100 mM sodium acetate buffer pH=4.3 and incubated at 20° C. for 24 hours. All the measurements were carried out on an Ultimate 3000 RS system (Thermo Scientific, Waltham, Mass., USA) controlled by Chromeleon 7.2 SR4 software using an Acquity BEH C18 reversed phase column (50×3.0 mm, 1.7 μm particle size) from Waters (Milford, USA). Following conditions were used for the runs: flow rate 0.6 mL/min, sampler temperature: 20° C., column oven temperature 25° C., injection volume 10 μL, gradient 5-95% MeOH (and H2O (+0.1% HCOOH)) in 10 min. The compound was first measured directly after the preparation of the compound (after 2-3 min) and thereafter every 60 min. The decrease of the compound was calculated by the compound peak areas relatively to the peak area directly after the preparation of the compound. […] At pH=6.3 the hydrolysis is below 0.5%/h, whereas at pH=7.4 the hydrolysis is quite fast with ˜2.6%/h (see FIG. 5). Corresponding results can be obtained when the further compounds of the invention are tested.
# [6] = Balb/c mice, twice a week, dose equimolar to 3 mg/kg cisplatin
# [7] = male Balb/c mice, dose equimolar to 12 mg/kg carboplatin
# [8] = Balb/c mice, i.v. twice a week, equimolar to 9 mg/kg oxaliplatin
molecule,measurement,setting,value
"CC(=O)[O][Pt]([Cl])([Cl])[O]C(=O)NCCN1C(=O)C=CC1=O.N.N [KP2372, (OC-6-44)-Acetatodiamminedichlorido[2-(2,5-dioxo-2,5-dihydro-1H-pyrrol-1-yl)ethylcarbamato]platinum(IV)]",anticancer activity against CT-26 tumors (tumor growth),[1]; [6],only marginally active; also recorded: widely inactive
"CC(=O)[O][Pt]([Cl])([Cl])[O]C(=O)NCCCCCN1C(=O)C=CC1=O.N.N [KP2540, (OC-6-44)-Acetatodiamminedichlorido[5-(2,5-dioxo-2,5-dihydro-1H-pyrrol-1-yl)pentylcarbamato]platinum(IV)]",anticancer activity against CT-26 tumors (tumor growth),[1]; [6],only marginally active; also recorded: widely inactive
"CC(=O)[O][Pt]1([NH2])([NH2])([O]C(=O)NCCN2C(=O)C=CC2=O)[O]C(=O)C2(CCC2)C(=O)[O]1 [KP2551, (OC-6-34)-Acetatodiamminecyclobutane-1,1-dicarboxylato[2-(2,5-dioxo-2,5-dihydro-1H-pyrrol-1-yl)ethylcarbamato]platinum(IV)]",anticancer activity against CT-26 tumors (tumor growth),[1]; [7],distinctly more active than all other tested compounds; also recorded: very strong anticancer activity
"[NH2][Pt]1([NH2])[O]C(=O)C2(CCC2)C(=O)[O]1 [carboplatin, (SP-4-2)-Diamminecyclobutane-1,1-dicarboxylatoplatinum(II), reference compound]",anticancer activity against CT-26 tumors (tumor growth),[1]; [7],no impact
"O=C1[O][Pt]2([NH][C@@H]3CCCC[C@H]3[NH]2)[O]C1=O [oxaliplatin, reference compound]",treated animals with life prolongation,"[2]; i.p. day 1, 5, 9, 9 mg/kg oxaliplatin",~50%
"(OC-6-34)-Acetato[(1R,2R)-cyclohexane-1,2-diamine]oxalato[2-(2,5-dioxo-2,5-dihydro-1H-pyrrol-1-yl)ethylcarbamato]platinum(IV) [KP2299]",anti-leukemic activity (survival),"[2]; i.p. day 1, 5, 9, equimolar to 9 mg/kg oxaliplatin",distinct anti-leukemic activity
same,anticancer activity against CT-26 tumors (tumor growth),[1]; [8],distinctly more active than all other tested compounds; also recorded: distinctly higher anticancer activity; also recorded: exceptionally increased anticancer activity
same,complete remission,"[1]; CT-26, female mice, equimolar to 9 mg/kg oxaliplatin i.v. twice a week",3 out of 4
same,anticancer activity against B16 tumors,[3],exceptionally increased anticancer activity
same,aqueous solubility,[4],highly increased
same,stability (decrease of the compound peak area),"[5]; pH=4.3, 100 mM sodium acetate buffer",stable
same,stability (decrease of the compound peak area),"[5]; pH=5.3, 100 mM sodium acetate buffer",stable
same,hydrolysis,"[5]; pH=6.3, 100 mM sodium acetate buffer",below 0.5 %/h
same,hydrolysis,"[5]; pH=7.4, 100 mM phosphate buffer",~2.6 %/h
"(OC-6-34)-[(1R,2R)-Cyclohexane-1,2-diamine]methoxidooxalato[2-(2,5-dioxo-2,5-dihydro-1H-pyrrol-1-yl)ethylcarbamato]platinum(IV) [KP2260]",anticancer activity against CT-26 tumors (tumor growth),[1]; [8],far less or at least later active
"(OC-6-44)-Acetato[(1R,2R)-cyclohexane-1,2-diamine]oxalato[4-(2,5-dioxo-2,5-dihydro-1H-pyrrol-1-yl)butanoato]platinum(IV) [KP2541]",anticancer activity against CT-26 tumors (tumor growth),[1]; [8],far less or at least later active
